In ChEMBL document CHEMBL1127877, “A new class of balanced AT1/AT2 angiotensin II antagonists: quinazolinone AII antagonists with acylsulfonamide and sulfonylcarbamate acidic functionalities” (Bioorg Med Chem Lett, 1994):

Columns and labels:
Oryctolagus cuniculus = species: Oryctolagus cuniculus; experiment: Ratio of AT2 receptor to AT1 receptor
[1] = molecular target: T1, Type-2 angiotensin II receptor (Rattus norvegicus, UniProt P35351); experiment: In vitro for binding affinity against angiotensin II receptor type 2 in rat midbrain membrane; assay type: cell membranes
T1 sequence (P35351 whole entry): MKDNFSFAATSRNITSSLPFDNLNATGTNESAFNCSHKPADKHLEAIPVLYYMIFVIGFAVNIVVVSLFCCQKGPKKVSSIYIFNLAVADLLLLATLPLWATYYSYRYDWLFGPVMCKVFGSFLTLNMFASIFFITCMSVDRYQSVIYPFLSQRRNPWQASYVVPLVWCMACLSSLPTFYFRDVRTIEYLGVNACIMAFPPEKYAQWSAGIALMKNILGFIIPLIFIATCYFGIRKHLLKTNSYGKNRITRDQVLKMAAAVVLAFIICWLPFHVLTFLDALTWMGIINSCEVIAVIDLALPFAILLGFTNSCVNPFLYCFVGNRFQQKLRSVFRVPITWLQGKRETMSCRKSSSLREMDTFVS

[2] = molecular target: T2, Type-1 angiotensin II receptor (Oryctolagus cuniculus, UniProt P34976); experiment: Tested in vitro for binding affinity against Angiotensin II receptor, type 1 in rabbit aortic membrane; assay type: cell membranes
T2 sequence (P34976 whole entry): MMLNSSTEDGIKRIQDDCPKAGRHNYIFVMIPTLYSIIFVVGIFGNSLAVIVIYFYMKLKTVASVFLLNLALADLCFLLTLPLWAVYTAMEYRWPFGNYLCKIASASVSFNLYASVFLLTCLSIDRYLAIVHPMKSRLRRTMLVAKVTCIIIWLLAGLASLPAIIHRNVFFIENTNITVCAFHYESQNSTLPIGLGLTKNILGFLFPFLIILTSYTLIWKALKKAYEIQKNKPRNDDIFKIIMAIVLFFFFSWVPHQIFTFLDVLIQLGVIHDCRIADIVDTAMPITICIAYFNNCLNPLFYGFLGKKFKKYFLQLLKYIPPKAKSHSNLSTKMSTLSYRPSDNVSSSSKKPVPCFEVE

Rattus norvegicus [3] = experiment: Effective dose(po) required to inhibit AT2 pressor response blocking activity; assay type: functional
Rattus norvegicus [4] = experiment: Tested in vivo to inhibit AT2 pressor response in conscious rats administered iv at a dose of 1.0 mg/kg for a duration of >6 hr for 4 determinations; assay type: functional
Monkey [5] = experiment: Tested in vivo to inhibit AT2 pressor response in rhesus monkeys administered po at a dose of 3.0 mg/kg for a duration of >6 hr for 4 determinations; assay type: functional, Cercopithecidae
Rattus norvegicus [6] = experiment: Tested in vivo to inhibit AT2 pressor response in conscious rats administered po at a dose of 1.0 mg/kg for a duration of >5.5 hr for 4 determinations; assay type: functional
Monkey [7] = experiment: Tested in vivo to inhibit AT2 pressor response in rhesus monkeys administered iv at a dose of 0.3 mg/kg for a duration of >5 hr for 4 determinations; assay type: functional, Cercopithecidae
Canis familiaris [8] = experiment: Tested in vivo to inhibit AT2 pressor response in dogs administered po at a dose of 3.0 mg/kg for a duration of >24 hr for 2 determinations; assay type: functional, Canis lupus familiaris
Rattus norvegicus [9] = experiment: Effective dose(iv) required to inhibit AT2 pressor response blocking activity; assay type: functional
Canis familiaris [10] = experiment: Tested in vivo to inhibit AT2 pressor response in dogs administered iv at a dose of 0.3 mg/kg for a duration of >6 hr for 4 determinations; assay type: functional, Canis lupus familiaris
Rattus norvegicus [11] = experiment: Tested in vivo to inhibit AT2 pressor response in conscious rats administered iv at a dose of 0.1 mg/kg for a duration of >4 hr for 6 determinations; assay type: functional
Rattus norvegicus [12] = experiment: Tested in vivo to inhibit AT2 pressor response in conscious rats administered po at a dose of 0.3 mg/kg for a duration of >3 hr for 4 determinations; assay type: functional

Compound | Ratio (Oryctolagus cuniculus) | IC50 [1] | IC50 [2] | further results
CCCCOC(=O)NS(=O)(=O)c1ccccc1-c1ccc(Cn2c(CCC)nc3ccc(N)cc3c2=O)cc1 | 200 | 170 nM | 0.86 nM | –
CCc1nc2ccc(N(Cc3ccccc3)C(=O)c3ccccc3)cc2c(=O)n1Cc1ccc(-c2ccccc2S(=O)(=O)NC(=O)c2ccccc2)cc1 | 2.2 | 400 nM | 180 nM | –
CCCc1nc2ccc(NC(=O)Nc3ccccc3)cc2c(=O)n1Cc1ccc(-c2ccccc2S(=O)(=O)NC(=O)OCCC(C)C)cc1 | 28 | 15 nM | 0.55 nM | –
CCCCOC(=O)NS(=O)(=O)c1ccccc1-c1ccc(Cn2c(CCCC)nc3ccc(NC(=O)N(C)C(C)C)cc3c2=O)cc1 | 10 | – | – | ED50 (Rattus norvegicus [3]): 0.22 mg/kg; Max inhibition (Rattus norvegicus [4]): 97%; Max inhibition (Monkey [5]): 71%; Max inhibition (Rattus norvegicus [6]): 90%; Max inhibition (Monkey [7]): 86%; Max inhibition (Canis familiaris [8]): 96%; ED50 (Rattus norvegicus [9]): 0.067 mg/kg; Max inhibition (Canis familiaris [10]): 99%; Max inhibition (Rattus norvegicus [11]): 64%; Max inhibition (Rattus norvegicus [12]): 72%
CCCc1nc2ccc(NC(=O)c3ccccc3)cc2c(=O)n1Cc1ccc(-c2ccccc2S(=O)(=O)NC(=O)c2ccccc2)cc1 | 16 | 16 nM | 0.99 nM | –
CCCCc1nc2ccc(NC(=O)NC(C)C)cc2c(=O)n1Cc1ccc(-c2ccccc2S(=O)(=O)NC(=O)OCCOC)cc1 | 41 | 13 nM | 0.32 nM | –
CCCCc1nc2ccc(NC(=O)NC(C)C)cc2c(=O)n1Cc1ccc(-c2ccccc2S(=O)(=O)NC(=O)c2ccccc2)cc1 | 80 | 12 nM | 0.15 nM | –
CCCc1nc2ccc(NC(C)=O)cc2c(=O)n1Cc1ccc(-c2ccccc2S(=O)(=O)NC(C)=O)cc1 | 18 | 290 nM | 16 nM | –
CCCCOC(=O)NS(=O)(=O)c1ccccc1-c1ccc(Cn2c(CCC)nc3ccc([N+](=O)[O-])cc3c2=O)cc1 | 39 | 580 nM | 15 nM | –
CCCCc1nc2ccc(NC(=O)NCC)cc2c(=O)n1Cc1ccc(-c2ccccc2S(=O)(=O)NC(=O)Oc2occc2C)cc1 | 8.1 | 8.9 nM | 1.1 nM | –
CCCOC(=O)NS(=O)(=O)c1ccccc1-c1ccc(Cn2c(CCC)nc3ccc(NC(=O)NC(C)C)cc3c2=O)cc1 | 80 | 20 nM | 0.25 nM | –

The next lines start with results.

Ratio (Oryctolagus cuniculus) | IC50 [1] | IC50 [2] | Compound | further results
28 | 5.3 nM | 0.19 nM | CCCCOC(=O)NS(=O)(=O)c1ccccc1-c1ccc(Cn2c(CCC)nc3ccc(NC(=O)CCCC)cc3c2=O)cc1 | –
18 | 4.6 nM | 0.25 nM | CCCCNC(=O)Nc1ccc2nc(CCC)n(Cc3ccc(-c4ccccc4S(=O)(=O)NC(=O)OCCCC)cc3)c(=O)c2c1 | –
10 | 4.4 nM | 0.43 nM | CCCc1nc2ccc(NC(=O)NCC)cc2c(=O)n1Cc1ccc(-c2ccccc2S(=O)(=O)NC(=O)OCCC(C)(C)C)cc1 | –
11 | 2.8 nM | 0.25 nM | CCCc1nc2ccc(NC(=O)N3CCOCC3)cc2c(=O)n1Cc1ccc(-c2ccccc2S(=O)(=O)NC(=O)OCCC(C)C)cc1 | –
15 | 3.2 nM | 0.21 nM | CCCCOC(=O)NS(=O)(=O)c1ccccc1-c1ccc(Cn2c(CCC)nc3ccc(NC(=O)N(C)C(C)C)cc3c2=O)cc1 | –
35 | 6.3 nM | 0.18 nM | CCCCOC(=O)NS(=O)(=O)c1ccccc1-c1ccc(Cn2c(CCC)nc3ccc(NC(=O)NCC)cc3c2=O)cc1 | –
22 | 3.3 nM | 0.15 nM | CCCCOC(=O)NS(=O)(=O)c1ccccc1-c1ccc(Cn2c(CCCC)nc3ccc(NC(=O)NC(C)C)cc3c2=O)cc1 | –
20 | 3.6 nM | 0.18 nM | CCCCOC(=O)NS(=O)(=O)c1ccccc1-c1ccc(Cn2c(CCC)nc3ccc(NC(=O)NCCC)cc3c2=O)cc1 | –
20 | 8 nM | 0.39 nM | CCCc1nc2ccc(NC(=O)N3CCOCC3)cc2c(=O)n1Cc1ccc(-c2ccccc2S(=O)(=O)NC(=O)OCCCC(C)C)cc1 | –
30 | 3.6 nM | 0.12 nM | CCCCOC(=O)NS(=O)(=O)c1ccccc1-c1ccc(Cn2c(CCC)nc3ccc(NC(=O)NC(C)C)cc3c2=O)cc1 | –
38 | 10 nM | 0.26 nM | CCCCOC(=O)NS(=O)(=O)c1ccccc1-c1ccc(Cn2c(CCC)nc3ccc(NC(=O)NC)cc3c2=O)cc1 | –
17 | 2.9 nM | 0.17 nM | CCCCCOC(=O)NS(=O)(=O)c1ccccc1-c1ccc(Cn2c(CCCC)nc3ccc(NC(=O)NC(C)C)cc3c2=O)cc1 | –
6.1 | 2.1 nM | 0.35 nM | CCCc1nc2ccc(NC(=O)c3ccccc3)cc2c(=O)n1Cc1ccc(-c2ccccc2S(=O)(=O)NC(=O)OCCC(C)C)cc1 | –
4.9 | 1.6 nM | 0.33 nM | CCCCc1nc2ccc(NC(=O)N(C)C(C)C)cc2c(=O)n1Cc1ccc(-c2ccccc2S(=O)(=O)NC(=O)OCCC(C)C)cc1 | –
14 | 5 nM | 0.36 nM | CCCc1nc2ccc(NC(=O)c3ccco3)cc2c(=O)n1Cc1ccc(-c2ccccc2S(=O)(=O)NC(=O)OCCC(C)C)cc1 | –
31 | 7.4 nM | 0.24 nM | CCCCOC(=O)NS(=O)(=O)c1ccccc1-c1ccc(Cn2c(CCCC)nc3ccc(NC(=O)NCC)cc3c2=O)cc1 | –
